Source: patent US9605013B2, “Derivatives of hemin with antibacterial and antiviral activity” (OBSCHESTVO S OGRANICHENNOI OTVETSTVENNOSTIYU …, priority 2011, dated 2017)

Assays:
[1] = test system: Herpes Simplex Virus type 2 strain G (No. VR-734 ATCC); assay: Antiviral activity, virus cytopathogenic action in Vero cells; assay type: cell-based; set-up: key: 0: CPA (cytopathogenic action) is not detected; 1: up to 25% virus-infected monolayer; from 25% to 50%; 3: from 50% to 75%; 4: from 75% to 100%; details: 48 hours
Experimental: […] used in the study were used Herpes Simplex Virus type 1 (the Collection of Microorganisms at the Scientific Research Institute of Virology, strain EC), Herpes Simplex Virus type 2 strain G (No. VR-734 ATCC), and human cytomegalovirus strain AD169 (No. VR-538 ATCC). Herpes Simplex viruses type 1 and type 2 were cultured in Vero cells. The cells were incubated in MEM Eagle growth medium (MEM, BioloT, St-Petersburg, 1.3.3) supplemented with 10% fetal bovine serum (BioloT, St-Petersburg, 1.3.12) in Sanyo MCO-15AC gas-flow thermostat (37° C., 5% CO2) (Tokyo, Japan). A seed dose was 2×10^5 cells/ml in the starting inoculum or 2×10^4 cells/well. Herpes Simplex viruses were cultured under the same conditions in the MEM medium without serum (maintenance medium). Starting viral titers were 10^7 TCID50/ml.
For DMSO-soluble preparations, stock solutions were prepared in a concentration of 10 mM in DMSO. For water-soluble preparations, a stock solution prepared had the same concentration in the MEM medium (Minimal Essential Medium) for cell cultures. To control cytotoxicity (see below), the stock solution was diluted in the medium to a concentration of 100 μM and ten-fold serial dilutions of the preparations were made in the MEM medium (for DMSO-soluble compounds—in the MEM medium comprising 3% DMSO). The following concentrations of the preparations were used in the study of […]: if toxicity was not found, the concentrations of 100 μM preparations were 100, 10 and 1 μM; if toxicity was detected, the concentrations of 100 μM preparations were 10, 1, and 0.1 μM. Acyclovir (10 μg/ml) was used for Herpes Simplex viruses of both types as a reference preparation to control the viral model validity.
To study antiviral activity, plate wells with a cell monolayer were added with the preparations in an amount of 0.1 ml/well. To compensate a reduction in the concentration of the preparations, which takes place in the following addition of viruses, twofold concentrations of compounds (i.e. 200, 20 and 2 or 20, 2 and 0.2 μM for […] concentrations of 100 μM preparations, respectively) were used, incubated for an hour and then were infected with the examined 0.1 ml/well viruses in doses 1, 10 and 100 TCID50 (50% tissue infectious dose).
The virus-specific cytogenic action was manifested in an increase in the size of cells, their rounding, and detachment from a substrate. These morphological characteristics served as their marked difference from the cells subjected to a toxic action of high concentrations of the examined preparations. The latter acquired spindle-like shape, lost contacts with neighboring cells of the monolayer, and their boundaries became more distinct.
Intensity of the virus-specific changes in the cells were semi-quantified using a 4-score system: 0—CPA (cytopathogenic action) is not detected; 1—up to 25% virus-infected monolayer; 2—from 25% to 50%; 3—from 50% to 75%; and 4—from 75% to 100%. The antiviral activity of a compound was evaluated according to their ability to reduce the manifestation of cytopathogenic action in the plate wells compared to the control values. Differences with the control values by 1 score and more were considered to be significant.

[2] = Water solubility
[3] = test system: Staphylococcus aureus No. 25923 ATCC; assay: Antibacterial specific activity, twofold dilutions, visual growth evaluation; assay type: cell-based; details: S. aureus 25923; 36° C., 24 hours
Experimental: (§1) The specific activity of compounds also was determined against bacteria strains such as Staphylococcus aureus No. 25923 ATCC (American Type Culture Collection); Staphylococcus aureus No. 100 KC; Staphylococcus epidermidis No. 533; Enterococcus faecalis No. 559; Enterococcus faecium No. 569, Staphylococcus aureus No. 5 (MRSA), Staphylococcus aureus No. 3797 (MRSA). Staphylococcus aureus was cultured on the Trypticase Soy Agar (BBL) commercially available dry medium. Enterococcus faecalis was cultured on the Columbia Agar (BBL) commercially available dry medium. These media were sterilized by autoclaving at 121° C. for 15 min. Bacterial inoculum was constant and was 5×10^5 CFU/ml (10^5 CFU/0.2 ml). For water-soluble compounds, wells from 2nd through 8th were added with the solvent (water) in an amount of 15 μL per well, then the 1st well was added with 30 μL of the stock solution of the tested compound in […] with a concentration of […], and the concentration was adjusted to 0.007×10^3 M by serial twofold dilutions. A 10-μL portion was taken from every well, and 190 μL of the bacterial culture (10^5 CFU) was added per well. For DMSO-soluble compounds, wells from 2nd through 8th were added with the solvent (DMSO) in an amount of 10 μL per well, then the 1st well was added with 20 μL of the stock solution of the tested compound in […] with a concentration of […], and the concentration was adjusted to 0.039×10^3 M by serial twofold dilutions. A 2-μL portion was taken from each well, and 198 μL of the bacterial culture (10^5 CFU) was added per well.
(§2) The control comprised wells free of tested compounds (culture growth control). In addition, purity control of nutritional media and solvents was used. Plates were incubated in a thermostat at 36° C. for 24 hours.
(§3) Culture growth was evaluated visually by comparison of how microorganisms grew in the presence of tested compounds and in the absence of them. MIC was set equal to the last dilution of a tested agent which suppressed bacterial culture growth.

[4] = test system: Staphylococcus epidermidis No. 533; assay: as above; assay type: cell-based; details: S. epidermis 533; 36° C., 24 hours
Experimental: as §1, §2, §3

[5] = test system: Enterococcus faecalis No. 559; assay: as above; assay type: cell-based; details: E. faecalis 559; 36° C., 24 hours
Experimental: as §1, §2, §3

[6] = test system: Staphylococcus aureus No. 3797 (MRSA); assay: as above; assay type: cell-based; details: St. aur No. 3797 MRSA; 36° C., 24 hours
Experimental: as §1, §2, §3

[7] = test system: Staphylococcus aureus No. 5 (MRSA); assay: as above; assay type: cell-based; details: St. aur No. 5 MRSA; 36° C., 24 hours
Experimental: as §1, §2, §3

[8] = test system: Staphylococcus aureus No. 100 KC; assay: as above; assay type: cell-based; details: S. aureus 100 KC; 36° C., 24 hours
Experimental: as §1, §2, §3

[9] = test system: Vancomycin-resistant Enterococcus faecium 569; assay: as above; assay type: cell-based; details: Vancomycin-resistant E. faecium 569; 36° C., 24 hours
Experimental: as §1, §2, §3

[10] = test system: Escherichia coli 4300; assay: as above; assay type: cell-based; details: E. coli 4300; 36° C., 24 hours
Experimental: [Worded in the source for another organism; this organism is reported under the same test.] as §1, §2, §3

[11] = test system: Bacillus subtilis BKM B-501; assay: Antibacterial activity, serial dilutions in liquid MH medium; assay type: cell-based; details: for MIC: MH medium, 20 h, 37° C., 100% growth inhibition
Experimental: (§4) The antibacterial activity of the compounds was determined against strains of gram-positive bacteria such as Staphylococcus aureus 209P, Enterococcus faecalis BKM B-871, Micrococcus luteus BKM Ac-2230, Bacillus subtilis BKM B-501, and gram-negative bacteria such as Pseudomonas aeruginosa PAO1 and Escherichia coli KM MGU C-600. BKM strains were acquired from the All-Russia Collection of Microorganisms at the Institute for Biochemistry and Physiology of Microorganisms, Russian Academy of Sciences. Strain Staphylococcus aureus 209P was acquired from the Collection of Microorganisms at the Department of microbiology of the Faculty of Biology of Lomonosov Moscow State University, and Pseudomonas aeruginosa PAO1 was acquired from the Collection of Microorganisms at the Institute of Bioorganic Chemistry of the Russian Academy of Sciences.
(§5) The main parameters characterizing the antibacterial activity are the minimal inhibitory concentration (MIC) and minimal bactericidal concentration (MBC). […] MBC is the least concentration that causes the death of all cells.
(§6) MIC was quantified by inhibiting culture growth in a liquid medium with serial dilutions of compounds using a modified procedure [Amsterdam, D., 1966. “Susceptibility testing of antimicrobials in liquid media,” pp. 52-111. In Loman, V., ed. Antibiotics in laboratory medicine, 4th ed. Williams and Wilkins, Baltimore].
(§7) Bacteria were cultured and tested on an MH liquid medium (Mueller-Hinton medium: a dry extract of beef broth, 4 g/L; starch, 1.5 g/L; casein hydrolyzate, 17.5 g/L; Sigma-Fluka Catalog No. 70192) at 37° C., 100% humidity, and under stirring. Cultures (within 4 to 7 passages after thawing) in the exponential growth phase were used for tests.
(§8) All tested compounds absorb light at 595 nm, a wavelength used for evaluating bacterial culture growth. Therefore, a correction for absorption was applied in estimating the optical density of bacterial suspensions for each compound with account for its concentration in the well. Bacterial growth inhibition (GI) as percentage after 20 hours of incubating cells with compounds was derived from the optical density (A) measured in every well at a wavelength of 595 nm using the equation: GIi=[(Act−Ac0)−(Ait−Ai0)]×100/(Act−Ac0), (1) wherein the subscripts have the following meanings: i denotes the well number, c denotes a control well with bacteria whereto the tested compound is not inserted, 0 refers to the measurement taken immediately once the tested compound was inserted to the well, and t refers to the measurement taken 20 hours after the compound was inserted.
(§9) The protocol for the determination of experimental antibacterial activity of the tested compounds was as follows. A cryovial with the test strain culture in a medium with 7% DMSO stored in liquid nitrogen, was rapidly defrosted, and 1.5 mL of the fresh MH medium was inoculated with 100 μL of the cell suspension. Cells were grown for one day at 37° C. and stirred on an orbital shaker at 150 rpm. The morphologic features of the strain and the absence of contamination with foreign bacteria were verified by: (a) inoculation on an agarized (15 g/L agar) MH medium and observation of the shape and color of the grown colonies and (b) examination of characteristic morphologic features under a microscope (Mikmed-2, LOMO, Russia) equipped with a 40× objective lens. Further, the bacteria were cultured in 1 mL of the liquid MH medium at 37° C. under stirring. The cells were reseeded every day. Cell cultures were used in tests starting with 3rd reseeding and ending with 6th one.
(§10) For testing, 5 μL of a bacterial suspension in the stationary growth phase was transferred to 1 mL of a sterile MH medium and incubated until the exponential growth phase was attained (3 to 5 h, 37° C., stirring at 150 rpm). To estimate the microorganism concentration, the optical density (A) of the resulting bacterial culture was measured at a wavelength of 595 nm. […]

[12] = test system: Micrococcus luteus BKM Ac-2230; assay: as above; assay type: cell-based; details: for MIC: MH medium, 20 h, 37° C., 100% growth inhibition; for MBC: no colonies on agarized MH medium
Experimental: as §4, §5, §6, §7, §8, §9, §10

[13] = test system: Enterococcus faecalis BKM B-871; assay: as above; assay type: cell-based; details: MH medium, 20 h, 37° C., 100% growth inhibition
Experimental: as §4, §5, §6, §7, §8, §9, §10

[14] = HSV-2, virus dose 1, concentration 0.1 μM
[15] = HSV-2, virus dose 1, concentration 1 μM
[16] = HSV-2, virus dose 1, concentration 10 μM
[17] = HSV-2, virus dose 10, concentration 0.1 μM
[18] = HSV-2, virus dose 10, concentration 1 μM
[19] = HSV-2, virus dose 10, concentration 10 μM
[20] = HSV-2, virus dose 100, concentration 0.1 μM
[21] = HSV-2, virus dose 100, concentration 1 μM
[22] = HSV-2, virus dose 100, concentration 10 μM

Substance	manifestation of the virus CPA [1, 14]	manifestation of the virus CPA [1, 15]	manifestation of the virus CPA [1, 16]	manifestation of the virus CPA [1, 17]	manifestation of the virus CPA [1, 18]	manifestation of the virus CPA [1, 19]	manifestation of the virus CPA [1, 20]	manifestation of the virus CPA [1, 21]	manifestation of the virus CPA [1, 22]	water solubility [2]	MIC [3] [µM]	MIC [4] [µM]	MIC [5] [µM]	MIC [6] [µM]	MIC [7] [µM]	MIC [8] [µM]	MIC [9] [µM]	MIC [10] [µM]	MIC [11] [µM]	MIC [12] [µM]	also measured
6,7-bis-[(Diamide N^α-L-Glycyl)-L-glutamyl]-Protohemin (IX) [XIII]	1 (up to 25% virus-infected monolayer)	1 (up to 25% virus-infected monolayer)	0.5 scores	2 (from 25% to 50%)	2 (from 25% to 50%)	1^1 (up to 25% virus-infected monolayer)	3 (from 50% to 75%)	3 (from 50% to 75%)	3 (from 50% to 75%)	water-soluble	12.5	12.5	12.5	50	83	12.5	>50.0	>50.0			
6,7-bis-[(Dimethyl Ester N^α-L-Glycyl)-L-glutamyl]-Protohemin (IX) [XIV]										water-insoluble	0.39	1.04	3.12	2.6	3.12	2.6	>50.0	>50.0	6.3	1.6	MBC ([11]; no colonies on agarized MH medium): 25 µM; MBC [12]: 6.3 µM
6,7-bis-[(Dimethyl Ester N^α-L-Seryl)-L-glutamyl]-Protohemin (IX)	1 (up to 25% virus-infected monolayer)	1 (up to 25% virus-infected monolayer)	0^1	2 (from 25% to 50%)	2 (from 25% to 50%)	1.5 scores	3 (from 50% to 75%)	3 (from 50% to 75%)	3 (from 50% to 75%)	water-soluble									50	12.5	MBC [12]: 25 µM; MIC [13]: 50 µM
